According to paper PMC7375528, “Piperidine scaffold as the novel P2-ligands in cyclopropyl-containing HIV-1 protease inhibitors: Structure-based design, synthesis, biological evaluation and docking study” (PLoS ONE, 2020):

Assays:
[1] = Cytotoxicity assay (cell counting kit-8); format: cell-based; settings: human; 293T cells, CCK-8, 24h exposure
Procedure: Selected inhibitors were further evaluated in cytotoxicity assay using a cell counting kit-8 assay. […] After 24h of culture, 1μL of drugs were added to each well. After another 24h of culture, 10 μL of CCK-8 was added to each well. Absorbance was quantified at wavelength 450 nm using an EnVision multilabel reader (PerkinElmer) after 2h at room temperature.

[2] = target: T1, wild-type HIV-1 PR (Human immunodeficiency virus type 1 group M subtype B, UniProt P04585); experiment: In vitro HIV-1 PR activity assay (FRET); format: biochemical
T1 construct: HIV-1 protease was cloned and heterologously expressed in Escherichia coli and purified; made in house; host or cells: Escherichia coli
Procedure: (§1) The inhibitory effect of all new designed inhibitors were measured using fluorescence resonance energy transfer (FRET) method. […] The energy transfer donor (EDANS) and acceptor (DABCYL) dyes are labeled at two ends of the peptide to perform FRET. Excitation and emission wavelengths were set at 340 nm and 490 nm. Inhibitors were dissolved in dimethylsulfoxide (DMSO) and diluted to appropriate concentrations. HIV-1 protease was cloned and heterologously expressed in Escherichia coli and purified. The experiment was carried out in 96-well plates. The FRET assay reaction buffer contained 0.1 M sodium acetate, 1 M sodium chloride, 1 mM ethylenediaminetetraacetic acid (EDTA), 1 mM dithiothreitol (DTT), 2% DMSO and 1 mg/mL bovine serum albumin (BSA) with an adjusted pH 4.7. Protease and inhibitor were mixed and incubated for 20–30 mins at room temperature and then the substrate was added. Each reaction was recorded for about 10 mins. From plots of concentration versus the calculated percent inhibition, IC50 values were determined.
as §1, with “20-30” for “20–30”, “mins.” for “mins. From plots of concentration versus the calculated percent inhibition, IC50 values were determined.”

Row | SMILES | melting point | CC50 at 24 h [1] | IC50 [2]
1 | O=C(N[C@@H](Cc1ccccc1)[C@H](O)CN(C1CC1)S(=O)(=O)c1ccc(C(F)(F)F)cc1)[C@@H]1CCCNC1 [22b, (R)-N-((2S,3R)-4-((N-cyclopropyl-4-(trifluoromethyl)phenyl)sulfonamido)-3-hydroxy-1-phenylbutan-2-yl)piperidine-3-carboxamide] | 204.8 to 206.3 °C | > 100000 nM | 8.35 ± 5.58 nM
2 | O=C(N[C@@H](Cc1ccccc1)[C@H](O)CN(C1CC1)S(=O)(=O)c1ccc([N+](=O)[O-])cc1)[C@@H]1CCCNC1 [22c, (R)-N-((2S,3R)-4-((N-cyclopropyl-4-nitrophenyl)sulfonamido)-3-hydroxy-1-phenylbutan-2-yl)piperidine-3-carboxamide] | 196.8 to 198.4 °C | > 100000 nM | 17 ± 8.12 nM
3 | Nc1ccc(S(=O)(=O)N(C[C@@H](O)[C@H](Cc2ccccc2)NC(=O)[C@@H]2CCCNC2)C2CC2)cc1 [22d, (R)-N-((2S,3R)-4-((4-amino-N-cyclopropylphenyl)sulfonamido)-3-hydroxy-1-phenylbutan-2-yl)piperidine-3-carboxamide] | 216.5 to 218.3 °C | > 100000 nM | 10.1 ± 6.71 nM
4 | COc1ccc(S(=O)(=O)N(C[C@@H](O)[C@H](Cc2ccccc2)NC(=O)[C@H]2CCCNC2)C2CC2)cc1 [23a, (S)-N-((2S,3R)-4-((N-cyclopropyl-4-methoxyphenyl)sulfonamido)-3-hydroxy-1-phenylbutan-2-yl)piperidine-3-carboxamide] | 92.9 to 94.7 °C | – | 433 ± 97.5 nM
5 | O=C(N[C@@H](Cc1ccccc1)[C@H](O)CN(C1CC1)S(=O)(=O)c1ccc(C(F)(F)F)cc1)[C@H]1CCCNC1 [23b, (S)-N-((2S,3R)-4-((N-cyclopropyl-4-(trifluoromethyl)phenyl)sulfonamido)-3-hydroxy-1-phenylbutan-2-yl)piperidine-3-carboxamide] | 236.5 to 238.4 °C | – | 264 ± 69.1 nM
6 | O=C(N[C@@H](Cc1ccccc1)[C@H](O)CN(C1CC1)S(=O)(=O)c1ccc([N+](=O)[O-])cc1)[C@H]1CCCNC1 [23c, (S)-N-((2S,3R)-4-((N-cyclopropyl-4-nitrophenyl)sulfonamido)-3-hydroxy-1-phenylbutan-2-yl)piperidine-3-carboxamide] | 155.9 to 157.2 °C | – | 483 ± 103 nM
7 | Nc1ccc(S(=O)(=O)N(C[C@@H](O)[C@H](Cc2ccccc2)NC(=O)[C@H]2CCCNC2)C2CC2)cc1 [23d, (S)-N-((2S,3R)-4-((4-amino-N-cyclopropylphenyl)sulfonamido)-3-hydroxy-1-phenylbutan-2-yl)piperidine-3-carboxamide] | 77.8 to 79.4 °C | – | 313 ± 58.1 nM
8 | CN1CCC[C@@H](C(=O)N[C@@H](Cc2ccccc2)[C@H](O)CN(C2CC2)S(=O)(=O)c2ccc([N+](=O)[O-])cc2)C1 [24c, (R)-N-((2S,3R)-4-((N-cyclopropyl-4-nitrophenyl)sulfonamido)-3-hydroxy-1-phenylbutan-2-yl)-1-methylpiperidine-3-carboxamide] | 159.9 to 161.2 °C | – | 39.5 ± 11.9 nM
9 | CN1CCC[C@@H](C(=O)N[C@@H](Cc2ccccc2)[C@H](O)CN(C2CC2)S(=O)(=O)c2ccc(N)cc2)C1 [24d, (R)-N-((2S,3R)-4-((4-amino-N-cyclopropylphenyl)sulfonamido)-3-hydroxy-1-phenylbutan-2-yl)-1-methylpiperidine-3-carboxamide] | 75.8 to 77.3 °C | > 100000 nM | 16.3 ± 9.54 nM
10 | COc1ccc(S(=O)(=O)N(C[C@@H](O)[C@H](Cc2ccccc2)NC(=O)[C@H]2CCCN(C)C2)C2CC2)cc1 [25a, (S)-N-((2S,3R)-4-((N-cyclopropyl-4-methoxyphenyl)sulfonamido)-3-hydroxy-1-phenylbutan-2-yl)-1-methylpiperidine-3-carboxamide] | 88.9 to 91.2 °C | – | 283 ± 36.4 nM
11 | CN1CCC[C@H](C(=O)N[C@@H](Cc2ccccc2)[C@H](O)CN(C2CC2)S(=O)(=O)c2ccc(C(F)(F)F)cc2)C1 [25b, (S)-N-((2S,3R)-4-((N-cyclopropyl-4-(trifluoromethyl)phenyl)sulfonamido)-3-hydroxy-1-phenylbutan-2-yl)-1-methylpiperidine-3-carboxamide] | 102.7 to 104.6 °C | – | 110 ± 27.2 nM
12 | CN1CCC[C@H](C(=O)N[C@@H](Cc2ccccc2)[C@H](O)CN(C2CC2)S(=O)(=O)c2ccc([N+](=O)[O-])cc2)C1 [25c, (S)-N-((2S,3R)-4-((N-cyclopropyl-4-nitrophenyl)sulfonamido)-3-hydroxy-1-phenylbutan-2-yl)-1-methylpiperidine-3-carboxamide] | 133.2 to 134.8 °C | – | 523 ± 104 nM
13 | CN1CCC[C@H](C(=O)N[C@@H](Cc2ccccc2)[C@H](O)CN(C2CC2)S(=O)(=O)c2ccc(N)cc2)C1 [25d, (S)-N-((2S,3R)-4-((4-amino-N-cyclopropylphenyl)sulfonamido)-3-hydroxy-1-phenylbutan-2-yl)-1-methylpiperidine-3-carboxamide] | 76.8 to 78.5 °C | – | 236 ± 36.5 nM
14 | COc1ccc(S(=O)(=O)N(C[C@@H](O)[C@H](Cc2ccccc2)NC(=O)C2CCNCC2)C2CC2)cc1 [26a, N-((2S,3R)-4-((N-cyclopropyl-4-methoxyphenyl)sulfonamido)-3-hydroxy-1-phenylbutan-2-yl)piperidine-4-carboxamide] | 219.9 to 221.3 °C | – | 155 ± 15.1 nM
15 | O=C(N[C@@H](Cc1ccccc1)[C@H](O)CN(C1CC1)S(=O)(=O)c1ccc(C(F)(F)F)cc1)C1CCNCC1 [26b, N-((2S,3R)-4-((N-cyclopropyl-4-(trifluoromethyl)phenyl)sulfonamido)-3-hydroxy-1-phenylbutan-2-yl)piperidine-4-carboxamide] | 243.3 to 245.1 °C | – | 124 ± 27.6 nM
16 | O=C(N[C@@H](Cc1ccccc1)[C@H](O)CN(C1CC1)S(=O)(=O)c1ccc([N+](=O)[O-])cc1)C1CCNCC1 [26c, N-((2S,3R)-4-((N-cyclopropyl-4-nitrophenyl)sulfonamido)-3-hydroxy-1-phenylbutan-2-yl)piperidine-4-carboxamide] | 186.2 to 187.7 °C | – | 268 ± 37.8 nM
17 | Nc1ccc(S(=O)(=O)N(C[C@@H](O)[C@H](Cc2ccccc2)NC(=O)C2CCNCC2)C2CC2)cc1 [26d, N-((2S,3R)-4-((4-amino-N-cyclopropylphenyl)sulfonamido)-3-hydroxy-1-phenylbutan-2-yl)piperidine-4-carboxamide] | 204.7 to 206.5 °C | – | 245 ± 39.8 nM
18 | COc1ccc(S(=O)(=O)N(C[C@@H](O)[C@H](Cc2ccccc2)NC(=O)CN2CCCCC2)C2CC2)cc1 [27a, N-((2S,3R)-4-((N-cyclopropyl-4-methoxyphenyl)sulfonamido)-3-hydroxy-1-phenylbutan-2-yl)-2-(piperidin-1-yl)acetamide] | 63.6 to 65.8 °C | – | 228 ± 45 nM
19 | O=C(CN1CCCCC1)N[C@@H](Cc1ccccc1)[C@H](O)CN(C1CC1)S(=O)(=O)c1ccc(C(F)(F)F)cc1 [27b, N-((2S,3R)-4-((N-cyclopropyl-4-(trifluoromethyl)phenyl)sulfonamido)-3-hydroxy-1-phenylbutan-2-yl)-2-(piperidin-1-yl)acetamide] | 72.3 to 75.2 °C | – | 52.7 ± 14.7 nM
20 | O=C(CN1CCCCC1)N[C@@H](Cc1ccccc1)[C@H](O)CN(C1CC1)S(=O)(=O)c1ccc([N+](=O)[O-])cc1 [27c, N-((2S,3R)-4-((N-cyclopropyl-4-nitrophenyl)sulfonamido)-3-hydroxy-1-phenylbutan-2-yl)-2-(piperidin-1-yl)acetamide] | 82.9 to 84.1 °C | – | 288 ± 62 nM
21 | Nc1ccc(S(=O)(=O)N(C[C@@H](O)[C@H](Cc2ccccc2)NC(=O)CN2CCCCC2)C2CC2)cc1 [27d, N-((2S,3R)-4-((4-amino-N-cyclopropylphenyl)sulfonamido)-3-hydroxy-1-phenylbutan-2-yl)-2-(piperidin-1-yl)acetamide] | 144.4 to 146.2 °C | – | 34.7 ± 12.5 nM
